Measured values as given in patent US7572920B2, “Benzimidazole derivative and use as a II receptor antagonist” (Takeda Pharmaceutical Company Limited, priority 2004, dated 2009).
Marks after values point to notes of the source that are not given here.

Columns and labels:
[1] = system: angiotensin II induced pressor response; test: Inhibition of angiotensin II induced pressor response in dogs; assay type: in vivo, male beagles; settings: fasting, AII 100 ng/kg i.v., test compound p.o. at dose equimolar to compound A 1 mg/kg, in 0.5% methylcellulose, mean±SEM
Protocol: Inhibitory Effects of the Compounds of the Present Invention Against Angiotensin II Induced Pressor Response in Dogs
For the experiment, male beagles (body weight 12.0-14.7 kg, KITAYAMA LABES, CO., LTD.) were used. They were anesthetized with sodium pentobarbital (50 mg/kg, i.p.), and a tracheal tube was inserted for management of the airway. The femoral region and the back of the neck were shaved, and a disinfectant (Isodine solution, MEIJI SEIKA KAISHA, LTD.) was applied. The dog was fixed at the dorsal position and the right femoral region was incised. A mirror catheter (5 F, MILLER INDUSTRIES) was inserted and placed in the femoral artery and a polyurethane tube in the femoral vein. The catheter and tube were passed through subcutaneously and fixed at the back region. The incised region was sutured thereafter and penicillin G potassium (MEIJI SEIKA KAISHA, LTD., 40000 units) was intramuscularly administered to prevent infection. Beginning from the next day, penicillin G potassium (40000 units) was administered once a day for 3 days. After 3 days for recovery, the dog was subjected to the experiment.
During the experiment, the dog was placed in a small metabolic cage. For measurement, the mirror catheter inserted in the femoral artery was connected to a transducer unit (MILLER INDUSTRIES), and the systemic blood pressure (average blood pressure) was recorded on a recorder (RECTI-HORIZ 8 K, NEC San-ei Instruments) through a DC amplifier (N4777, NEC San-ei Instruments) and a blood pressure monitor amplifier (N4441, NEC San-ei Instruments). The polyurethane tube inserted in the femoral vein was fixed outside the cage and used for administration of AII (PEPTIDE INSTITUTE, INC.). The experiment was conducted under fasting and AII (100 ng/kg, i.v.) was administered 3 or 4 times before administration of a test compound to confirm stabilization of the vasopressor response. A dose of the test compound corresponding to an equimolar amount of compound A was suspended in 0.5% methylcellulose and orally administered at a volume of 2 mL/kg. After drug administration, AII was administered at each time point of measurement and increase in the blood pressure was measured, based on which the inhibition rate from the value before the administration was calculated.
The results are shown in mean±SEM (Table 2). The significance between the group administered with the compound obtained in Example 5 and the group administered with compound A was analyzed using Student's t-test with Bonferroni correction ([…]).

[2] = system: angiotensin II induced pressor response; test: Inhibition of angiotensin II induced pressor response in rats; assay type: in vivo, Male Sprague-Dawley rats; settings: AII 100 ng/kg i.v., test compound p.o. at dose equimolar to compound A (0.10-0.14 mg/kg), in 0.5% methylcellulose, mean±SEM
Protocol: Inhibitory Effects of Compounds of the Present Invention Against Angiotensin II Induced Pressor Response in Rats
Male Sprague-Dawley rats (9-11 weeks old, CLEA Japan, Inc.) were anesthetized with pentobarbital (50 mg/kg, i.p.) and the femoral artery and vein were isolated and cannulated with polyethylene tubes filled with saline containing heparin (200 U/mL). The catheters were subcutaneously inserted to a site in the back of the neck and fixed. After recovery period, the rat was subjected to the experiment. The arterial catheter was connected to a pressure transducer coupled to a blood pressure monitor amplifier (2238, NEC San-ei Instruments) and the pressure was recorded on a recorder (RECTI-HORIZ 8K, NEC San-ei Instruments). After establishing angiotensin II (AII, 100 ng/kg, i.v.) induced pressor responses, a test compound at a dose corresponding to an equimolar amount of compound A (2-ethoxy-1-{[2′-(5-oxo-4,5-dihydro-1,2,4-oxadiazol-3-yl)biphenyl-4-yl]methyl}-1H-benzimidazole-7-carboxylic acid) was administered. AII was administered 24 hours later and increase in the blood pressure was measured, based on which the inhibition rate from the value before the administration was calculated. All compounds were suspended in 0.5% methylcellulose and orally administered at a volume of 2 mL/kg.
The results are shown in mean±SEM (Table 1). The significance between the group administered with the compound obtained in Example 5 and the other groups was analyzed using Student's t-test ([…]).

Row | Structure (SMILES) | inhibition rate of AII induced increase in blood pressure, 10 hrs after administration [1] | inhibition rate of AII induced increase in blood pressure, 24 hrs after administration [1] | inhibition rate of AII induced increase in blood pressure, 24 hrs after administration [2]
1 | CCOc1nc2cccc(C(=O)OCc3oc(=O)oc3C)c2n1Cc1ccc(-c2ccccc2-c2noc(=O)[nH]2)cc1 [Example 2, (5-methyl-2-oxo-1,3-dioxol-4-yl)methyl 2-ethoxy-1-{[2′-(5-oxo-4,5-dihydro-1,2,4-oxadiazol-3-yl)biphenyl-4-yl]methyl}-1H-benzimidazole-7-carboxylate] | 35.9 ± 4.8 | 28.6 ± 4.1 | –
2 | CCOc1nc2cccc(C(=O)OCc3oc(=O)oc3C)c2n1Cc1ccc(-c2ccccc2-c2noc(=O)[nH]2)cc1.[K] [Example 5, (5-methyl-2-oxo-1,3-dioxol-4-yl)methyl 2-ethoxy-1-{[2′-(5-oxo-4,5-dihydro-1,2,4-oxadiazol-3-yl)biphenyl-4-yl]methyl}-1H-benzimidazole-7-carboxylate potassium salt] | 55.6 ± 3.4** | 40.3 ± 5.1* | 32.7 ± 4.6
3 | CCOc1nc2cccc(C(=O)O)c2n1Cc1ccc(-c2ccccc2-c2noc(=O)[nH]2)cc1 [compound A, 2-ethoxy-1-{[2′-(5-oxo-4,5-dihydro-1,2,4-oxadiazol-3-yl)biphenyl-4-yl]methyl}-1H-benzimidazole-7-carboxylic acid] | 27.0 ± 3.2 | 19.6 ± 3.7 | –
4 | CCOc1nc2cccc(C(=O)OC)c2n1Cc1ccc(-c2ccccc2-c2noc(=O)[nH]2)cc1 [compound B, methyl 2-ethoxy-1-{[2′-(5-oxo-4,5-dihydro-1,2,4-oxadiazol-3-yl)biphenyl-4-yl]methyl}-1H-benzimidazole-7-carboxylate] | – | – | 0.8 ± 4.9**
5 | CCOc1nc2cccc(C(=O)OC(C)OC(=O)OC3CCCCC3)c2n1Cc1ccc(-c2ccccc2-c2noc(=O)[nH]2)cc1 (stereo not shown) [compound C, 1-(cyclohexyloxycarbonyloxy)ethyl 2-ethoxy-1-{[2′-(5-oxo-4,5-dihydro-1,2,4-oxadiazol-3-yl)biphenyl-4-yl]methyl}-1H-benzimidazole-7-carboxylate] | – | – | 9.3 ± 8.6*
6 | CCOc1nc2cccc(C(=O)OCOC(C)=O)c2n1Cc1ccc(-c2ccccc2-c2noc(=O)[nH]2)cc1 [compound D, acetoxymethyl 2-ethoxy-1-{[2′-(5-oxo-4,5-dihydro-1,2,4-oxadiazol-3-yl)biphenyl-4-yl]methyl}-1H-benzimidazole-7-carboxylate] | – | – | 10.9 ± 5.6*
